In US10023570B2 (Array BioPharma, Inc., priority 2015, dated 2018) one finds IC50 data, which are given here for 18 compounds.

Read-outs that look alike come from different tables or passages of the source.

Experiment [1] concerns the target N-terminal GST tagged recombinant human RET cytoplasmic domain (aa 658-end), wild type RET kinase (Homo sapiens (Human), UniProt P07949). As to the kind of experiment: RET Enzyme Assay (HTRF KinEASE-TK), wild type RET. It counts as biochemical. Conditions: wild type RET, 1 mM ATP. On the technique in general: In TR-FRET formats the signal depends on donor and acceptor labels being close together.

Experiment [2] addresses Kif5b-RET fusion protein in HEK-293 cells (Homo sapiens, UniProt P07949). As to the kind of experiment: cell-based. How it is done:
The cellular potency of a compound inhibiting RET kinase was determined in HEK-293 cells expressing a Kif5b-RET fusion protein. Briefly, HEK-293 cells expressing a Kif5b-RET fusion protein were plated at 50K cells/well in 96 well poly-D-Lysine coated plates the day prior to the assay. The cells were incubated for 1 hour with test compound in DMEM (Dulbecco's Modified Eagle Medium) at a final DMSO concentration of 0.5%. […] After 1 hour the media was removed, the cells were fixed with 3.8% formaldehyde for 20 min, washed with PBS, and permeabilized for 10 min with 100% methanol. […] All antibodies were diluted in LI-COR Block containing 0.05% Tween. The plates were washed with PBS-0.05% Tween20, 100 μL PBS was added to each well, and the plates were read on a LI-COR Aerius fluorescent plate reader. The phospho-RET signal was normalized to the GAPDH signal. […] The IC50 value is the point where the curve crosses 50 POC.

[3] abbreviates: HEK-293 cells expressing Kif5b-RET, read-out: KIF5B-RET pTYR1062 Cell IC50.

Sequence of N-terminal GST tagged recombinant human RET cytoplasmic domain (aa 658-end), wild type RET kinase (P07949 658-1114): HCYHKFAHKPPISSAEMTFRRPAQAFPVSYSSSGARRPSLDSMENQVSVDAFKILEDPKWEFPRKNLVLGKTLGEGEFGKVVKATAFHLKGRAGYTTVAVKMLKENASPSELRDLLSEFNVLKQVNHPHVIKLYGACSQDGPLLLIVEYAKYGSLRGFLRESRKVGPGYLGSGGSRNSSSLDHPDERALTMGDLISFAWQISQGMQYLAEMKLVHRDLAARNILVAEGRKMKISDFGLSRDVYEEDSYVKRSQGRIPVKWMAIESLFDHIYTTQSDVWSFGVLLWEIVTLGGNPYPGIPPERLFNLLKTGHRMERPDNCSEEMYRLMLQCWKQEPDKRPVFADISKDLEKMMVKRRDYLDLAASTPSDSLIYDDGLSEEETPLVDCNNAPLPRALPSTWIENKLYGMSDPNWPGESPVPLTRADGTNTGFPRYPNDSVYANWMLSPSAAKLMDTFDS
Sequence of Kif5b-RET fusion protein in HEK-293 cells (P07949 29-1114 limits assumed): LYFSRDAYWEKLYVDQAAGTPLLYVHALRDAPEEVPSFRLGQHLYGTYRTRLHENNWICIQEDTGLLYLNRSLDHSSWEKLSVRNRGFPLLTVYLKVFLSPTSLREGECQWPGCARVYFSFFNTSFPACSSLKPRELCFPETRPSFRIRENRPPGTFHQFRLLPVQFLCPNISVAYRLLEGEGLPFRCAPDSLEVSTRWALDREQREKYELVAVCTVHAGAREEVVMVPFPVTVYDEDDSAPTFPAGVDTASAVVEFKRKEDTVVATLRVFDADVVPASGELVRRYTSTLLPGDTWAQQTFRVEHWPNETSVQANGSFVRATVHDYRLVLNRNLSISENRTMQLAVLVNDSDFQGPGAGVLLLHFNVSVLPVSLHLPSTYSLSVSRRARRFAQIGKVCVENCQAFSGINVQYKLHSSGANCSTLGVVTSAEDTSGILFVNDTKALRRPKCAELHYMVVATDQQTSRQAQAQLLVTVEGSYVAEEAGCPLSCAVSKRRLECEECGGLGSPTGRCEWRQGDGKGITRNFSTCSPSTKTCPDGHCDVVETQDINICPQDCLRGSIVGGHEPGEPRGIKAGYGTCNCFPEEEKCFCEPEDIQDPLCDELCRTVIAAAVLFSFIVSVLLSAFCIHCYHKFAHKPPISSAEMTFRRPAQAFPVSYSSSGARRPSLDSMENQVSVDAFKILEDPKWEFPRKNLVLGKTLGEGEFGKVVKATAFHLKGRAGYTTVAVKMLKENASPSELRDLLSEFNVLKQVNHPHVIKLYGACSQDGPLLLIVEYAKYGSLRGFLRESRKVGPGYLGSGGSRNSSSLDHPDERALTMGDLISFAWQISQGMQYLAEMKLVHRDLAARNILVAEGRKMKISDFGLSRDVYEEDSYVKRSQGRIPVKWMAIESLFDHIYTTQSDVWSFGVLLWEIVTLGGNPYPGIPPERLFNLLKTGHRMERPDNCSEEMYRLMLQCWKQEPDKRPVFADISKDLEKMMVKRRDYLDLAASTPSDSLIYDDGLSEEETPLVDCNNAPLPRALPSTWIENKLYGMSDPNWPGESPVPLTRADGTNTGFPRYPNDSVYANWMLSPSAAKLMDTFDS

The IC50 is the midpoint of a concentration-inhibition curve. With `Cc1nn(C)c(C)c1-c1cc(-c2ccc(N3CCN(Cc4ccccc4)CC3)nc2)c2c(C#N)cnn2c1` [Example 613, 4-(6-(4-benzylpiperazin-1-yl)pyridin-3-yl)-6-(1,3,5-trimethyl-1H-pyrazol-4-yl)pyrazolo[1,5-a]pyridine-3-carbonitrile], the half-maximal inhibitory concentration (IC50) turned out to be 122 nM in experiment [1] and 361 nM in experiment [2].
Consider `CCc1nn(CC)cc1-c1cc(-c2ccc(N3CCN(Cc4ccccc4)CC3)nc2)c2c(C#N)cnn2c1` [Example 615, 4-(6-(4-benzylpiperazin-1-yl)pyridin-3-yl)-6-(1,3-diethyl-1H-pyrazol-4-yl)pyrazolo[1,5-a]pyridine-3-carbonitrile], for which the figures for the IC50 in experiment [1] and in experiment [2] were 60 nM and 117 nM, respectively.
With `Cc1nn(C(C)(C)C)cc1-c1cc(-c2ccc(N3CCN(Cc4ccccc4)CC3)nc2)c2c(C#N)cnn2c1` [Example 616, 4-(6-(4-benzylpiperazin-1-yl)pyridin-3-yl)-6-(1-(tert-butyl)-3-methyl-1H-pyrazol-4-yl)pyrazolo[1,5-a]pyridine-3-carb onitrile], the half-inhibitory concentration (IC50) worked out at 60.8 nM in experiment [1] and 85.2 nM in experiment [2].
On to `Cn1cc(-c2cc(-c3ccc(N4CCN(Cc5ccccc5)CC4)nc3)c3c(Cl)cnn3c2)cn1` [Example 647, 4-(6-(4-benzylpiperazin-1-yl)pyridine-3-yl)-3-chloro-6-(1-methyl-1H-pyrazol-4-yl)pyrazolo[1,5-a]pyridine], for which the IC50 came to 34.4 nM in experiment [1] and 63 nM in experiment [2] (setting [3]).
For the compound `CC(C)C(O)CN1CCN(c2ccc(-c3cc(-c4cnn(C)c4)cn4ncc(Cl)c34)cn2)CC1` (stereo not drawn) [Example 648, 1-(4-(5-(3-chloro-6-(1-methyl-1H-pyrazol-4-yl)pyrazolo[1,5-a]pyridin-4-yl)pyridine-2-yl)piperazin-1-yl)-3-methylbutan-2-ol], the values for the IC50 in experiment [1] and in experiment [2] were 34.1 nM and 183 nM, respectively.
Take `Cc1cnn2cc(-c3cnn(C)c3)cc(-c3ccc(N4CCN(Cc5ccccc5)CC4)nc3)c12` [Example 653, 4-(6-(4-benzylpiperazin-1-yl)pyridin-3-yl)-3-methyl-6-(1-methyl-1H-pyrazol-4-yl)pyrazolo[1,5-a]pyridine]: the results for the IC50 in experiment [1] and in experiment [2] (setting [3]) were 86.9 nM and 69.4 nM, respectively.
For `Cc1cnn2cc(-c3cnn(C)c3)cc(-c3ccc(N4CCN(Cc5ccccn5)CC4)nc3)c12` [Example 654, 3-methyl-6-(1-methyl-1H-pyrazol-4-yl)-4-(6-(4-(pyridine-2-ylmethyl)piperazin-1-yl)pyridin-3-yl)pyrazolo[1,5-a]pyridine] the same measures were 70.6 nM and 164 nM.
As for `CCc1cnn2cc(-c3cnn(C)c3)cc(-c3ccc(N4CCNCC4)nc3)c12` [Example 657, 3-ethyl-6-(1-methyl-1H-pyrazol-4-yl)-4-(6-(piperazin-1-yl)pyridin-3-yl)pyrazolo[1,5-a]pyridine], the IC50 in experiment [1] was found to be 140 nM; in experiment [2] (setting [3]), 215 nM.
As for `COc1cc(C)c(CN2CCN(c3ccc(-c4cc(-c5cnn(C)c5)cn5ncc(C#N)c45)cn3)CC2)cn1` [Example 672, 4-(6-(4-((6-methoxy-4-methylpyridin-3-yl)methyl)piperazin-1-yl)pyridin-3-yl)-6-(1-methyl-1H-pyrazol-4-yl)pyrazolo[1,5-a]pyridine-3-carbonitrile], the IC50 turned out to be 19.3 nM in experiment [1] and 17.3 nM in experiment [2] (setting [3]).
As for `Cn1cc(-c2cc(-c3ccc(N4CCN(Cc5ccc(OCC(F)(F)F)nc5)CC4)nc3)c3c(C#N)cnn3c2)cn1` [Example 674, 6-(1-methyl-1H-pyrazol-4-yl)-4-(6-(4-((6-(2,2,2-trifluoroethoxy)pyridin-3-yl)methyl)piperazin-1-yl)pyridin-3-yl)pyrazolo[1,5-a]pyridine-3-carbonitrile], the IC50 came out at 42.5 nM in experiment [1] and 74.7 nM in experiment [2] (setting [3]).
Consider `Cn1cc(-c2cc(-c3ccc(N4CCN(Cc5ccc(OC(F)F)nc5)CC4)nc3)c3c(C#N)cnn3c2)cn1` [Example 675, 4-(6-(4-((6-(difluoromethoxy)pyridin-3-yl)methyl)piperazin-1-yl)pyridin-3-yl)-6-(1-methyl-1H-pyrazol-4-yl)pyrazolo[1,5-a]pyridine-3-carbonitrile], for which the IC50 was determined as 13.6 nM in experiment [1] and 24.1 nM in experiment [2] (setting [3]).
In the case of `COc1ccc(CN2CCN(c3ccc(-c4cc(-c5cnn(C)c5)cn5ncc(C#N)c45)cn3)CC2)c(C)n1` [Example 678, 4-(6-(4-((6-methoxy-2-methylpyridin-3-yl)methyl)piperazin-l-yl)pyridin-3-yl)-6-(1-methyl-1H-pyrazol-4-yl)pyrazolo[1,5-a]pyridine-3-carbonitrile], the half-maximal inhibitory concentration (IC50) in experiment [1] came to 15 nM; in experiment [2], 16.3 nM.
Consider `COc1ccc(CN2CCN(c3ccc(-c4cc(-c5cnn(C(C)C)c5)cn5ncc(C#N)c45)cn3)CC2)cn1` [Example 697, 6-(1-isopropyl-1H-pyrazol-4-yl)-4-(6-(4-((6-methoxypyridin-3-yl)methyl)piperazin-1-yl)pyridin-3-yl)pyrazolo[1,5-a]pyridine-3-carbonitrile], for which the figures for the 50% inhibitory concentration (IC50) in experiment [1] and in experiment [2] were 28.1 nM and 13.8 nM, respectively.
As to `COc1ccc(CN2CCN(c3ccc(-c4cc(-c5cn[nH]c5)cn5ncc(C#N)c45)cn3)CC2)cn1` [Example 698, 4-(6-(4-((6-methoxypyridin-3-yl)methyl)piperazin-1-yl)pyridin-3-yl)-6-(1H-pyrazol-4-yl)pyrazolo[1,5-a]pyridine-3-carbonitrile], the half-inhibitory concentration (IC50) came out at 6.7 nM in experiment [1] and 12.4 nM in experiment [2] (setting [3]).
As for `COc1cccc(CN2CCN(c3ccc(-c4cc(-c5cn[nH]c5)cn5ncc(C#N)c45)cn3)CC2)n1` [Example 699, 4-(6-(4-((6-methoxypyridin-2-yl)methyl)piperazin-1-yl)pyridin-3-yl)-6-(1H-pyrazol-4-yl)pyrazolo[1,5-a]pyridine-3-carbonitrile], the IC50 in experiment [1] came out at 19.4 nM; in experiment [2] (setting [3]), 24.3 nM.
`COc1ccc(CN2CCN(c3ccc(-c4cc(-c5cnn(C[C@H](C)O)c5)cn5ncc(C#N)c45)cn3)CC2)cn1` [Example 701, (S)-6-(1-(2-hydroxypropyl)-1H-pyrazol-4-yl)-4-(6-(4-((6-methoxypyridin-3-yl)methyl)piperazin-1-yl)pyridin-3-yl)pyrazolo[5-a]pyridine-3-carbonitrile]: the concentration for half-maximal inhibition (IC50) in experiment [1] is 16.5 nM; in experiment [2] (setting [3]), 8 nM.
`COc1ccc(CN2CCN(c3ccc(-c4cc(-c5cnn(CC(C)(C)O)c5)cn5ncc(C#N)c45)cn3)CC2)cn1` [Example 702, 6-(1-(2-hydroxy-2-methylpropyl)-1H-pyrazol-4-yl)-4-(6-(4-((6-methoxypyridin-3-yl)methyl)piperazin-1-yl)pyridin-3-yl)pyrazolo[1,5-a]pyridine-3-carbonitrile]: the IC50 was found to be 15.3 nM in experiment [1] and 5.6 nM in experiment [2] (setting [3]).
`COc1ccc(CN2CCN(c3ccc(-c4cc(-c5cnn(CCS(=O)(=O)C(C)C)c5)cn5ncc(C#N)c45)cn3)CC2)cn1` [Example 703, 6-(1-(2-(isopropylsulfonyl)ethyl)-1H-pyrazol-4-yl)-4-(6-(4-((6-methoxypyridin-3-yl)methyl)piperazin-1-yl)pyridin-3-yl)pyrazolo[1,5-a]pyridine-3-carbonitrile]: the IC50 worked out at 16.4 nM in experiment [1] and 9.8 nM in experiment [2] (setting [3]).
